Experimental findings from article PMC8400033, “A Multicomponent Protocol for the Synthesis of Highly Functionalized γ-Lactam Derivatives and Their Applications as Antiproliferative Agents” (Pharmaceuticals, 2021) are described below.

A value given as a limit tells only on which side of the number the result lay.

In data set [1] the test system is HTB81 (human prostate carcinoma). The data set is described as follows: CCK-8 antiproliferative assay, HTB81 cell line. It is filed as cell-based. An excerpt: (§1) In a preliminary study, we tested the cytotoxicity of γ-lactam 4b as lead compound against seven human cancer cell lines: HEK293 (human embryonic kidney), MCF7 (human breast adenocarcinoma), HTB81 (human prostate carcinoma), HeLa (human epithelioid cervix carcinoma), RKO (human colon epithelial carcinoma), SKOV3 (human ovarian carcinoma) and A549 (carcinomic human alveolar basal epithelial cell). The cell proliferation inhibitory activity of γ-lactam 4b is shown as IC50 values (Figure 2).

Data set [2] deals with HEK293 (human embryonic kidney). Kind of data set: CCK-8 antiproliferative assay, HEK293 cell line. It is filed as cell-based.
Description: as §1

Data set [3] relates to A549 cells. The data set is described as follows: Visualization of cell growth and morphology. It is filed as cell-based, human. As to the method: Next, cell morphology analysis and flow cytometry assays were performed, to elucidate the mechanism of the antiproliferative activity of γ-lactam substrates. Cell morphology was analyzed at different time points after the addition of compound 4b to visualize the cellular modifications as a result of the treatment.
Qualitative analysis of A549 cell growth and morphology after exposure to 1 µM and 5 µM of the cytotoxic compound 4b was conducted using Cytation^TM 1 Cell Imaging Multi-Mode Reader (Biotek, Winooski, VT, USA). Cell images were acquired immediately after the addition of the compound and at the following time-points after exposure: 0.5, 1, 1.5, 2, 3, 4, 8, 12, 16, 24, and 48 h.

Data set [4] relates to MCF7 (human breast adenocarcinoma). Kind of data set: CCK-8 antiproliferative assay, MCF7 cell line. It counts as cell-based.
Description: as §1

Data set [5] relates to SKOV3 (human ovarian carcinoma). Kind of data set: CCK-8 antiproliferative assay, SKOV3 cell line. Conditions: Homo sapiens, SK-OV-3, read-out: IC50 SKOV3, SKOV3 cell line, CCK-8.
Description: (§2) In vitro cytotoxicity of the γ-lactam derivatives was evaluated by testing their antiproliferative activities against several human cancer cell lines. Cell counting kit (CCK-8) assay was used for the evaluation of growth inhibition.
(§3) All stock solutions of the investigated compounds were prepared by dissolving the powdered materials in appropriate amounts of DMSO. The final concentration of DMSO never exceeded 5% (v/v) in reactions. The stock solution was stored at 5 °C until it was used.
(§4) All were supplemented with 10% of fetal bovine serum (FBS) (Sigma-Aldrich, Madrid, Spain) and with 1% of NORMOCIN solution (Thermo Fisher, Waltham, Massachusetts, MA, USA). […] For cytotoxicity experiments, A549 cells were seeded in 96-well plates at a density of 2.5–3 × 10^3 cells per well and incubated overnight to achieve 70% of confluence at the time of exposition to the cytotoxic compound.
Data set [6] has as its system HeLa (human epithelioid cervix carcinoma). Kind of data set: CCK-8 antiproliferative assay, HeLa cell line. It counts as cell-based.
Description: as §1

Data set [7] has as its system A549 (carcinomic human alveolar basal epithelial cell). Kind of data set: CCK-8 antiproliferative assay, A549 cell line. The note with it: Homo sapiens, A549, A549 cell line, CCK-8; read-out: IC50 A549. It is filed as cell-based.
Description: as §2, §3, §4
(§5) Both were supplemented with 10% of fetal bovine serum (FBS) (Sigma-Aldrich, Spain) and with 1% of NORMOCIN solution (Thermo Fisher, Waltham, Massachusetts, MA, USA). […] For cytotoxicity experiments, A549 cells were seeded in 96-well plates at a density of 2.5–3 × 10^3 cells per well and incubated overnight to achieve 70% of confluence at the time of exposition to the cytotoxic compound.
In data set [8] the test system is RKO (human colon epithelial carcinoma). Kind of data set: CCK-8 antiproliferative assay, RKO cell line. It is filed as cell-based.
Description: as §2, §3, §4
For data set [9], the system named is A549 cells. The data set is described as follows: Flow cytometry apoptosis/necrosis assay (Annexin V FITC / propidium iodide). It is filed as cell-based, human. Conditions: A549, 5 µM; for Percentage of late-apoptotic and necrotic cells: FL-1 and FL-3 positive; for Percentage of early-apoptotic cells: FL-1 positive, FL-3 negative. As to the method:
In addition, flow cytometry assays were performed using compound 4b in A549 cells at 12, 24, and 48 h post-exposure. Early apoptotic cells were FL-1 positive and FL-3 negative, meaning that they had initialized the apoptotic process but were still alive at the time of the measurement. Percentages of these early-apoptotic cells after 12, 24, and 48 h. were, respectively, 31.17 ± 2.04%, 34.97 ± 3.62% and 40.13 ± 0.81%. On the other hand, late apoptotic and necrotic cells were both FL-1 and FL-3 positive, meaning that they activated the apoptotic machinery and were dead at the time of the measurement. Percentages of late-apoptotic and necrotic cells after 12, 24 and 48 h were, respectively, 33.03 ± 1.43%, 37.60 ± 3.37% and 36.90 ± 0.70% (Figure 4). Control live cells were all FL-1 and FL-3 negative, while around 95% of control necrotic cells were FL-3 positive, FL-1 negative (See ESI). […] In fact, among all the dead cells detected, which were FL-1 positive, almost all were simultaneously positive for the FL-3 channel too, while only a small percentage (2% or lower) of dead cells were exclusively FL-1 positive. Therefore, the majority of dead cells detected in this study were apoptotic cells. In addition, the total percentages of […], which comprised early and late apoptotic cells, were over 60%, and the percentage increased over time.
Flow cytometry assays were conducted using a FACSCalibur system flow cytometer (Becton Dickinson Bioscience, Franklin Lakes, NJ, USA), to identify apoptotic cells and to differentiate them from necrotic cells. A549 cells were exposed to 5 µM of the cytotoxic compound 4b and cell apoptosis and necrosis were evaluated 12, 24, and 48 h after exposure. For that purpose, treated cells were washed with phosphate-buffered saline (PBS) (Sigma-Aldrich, Spain) and detached with trypsin/EDTA (0.25%) (Gibco, New York, NY, USA). Cells were centrifuged at 1100 rpm for 5 min, and then the resulting pellet was resuspended in cell growth media and transferred to specific flow cytometer tubes. Propidium iodide (Sigma-Aldrich, Spain) at 1:300 dilution was used in each sample to detect necrotic cells and eBioscience™ Annexin V Apoptosis Detection Kit FITC (Fisher Scientific, Spain) was used to detect apoptotic cells following the manufacturer’s instructions. The fluorescent signals corresponding to necrotic cells and apoptotic cells were measured at 650 nm (FL3) and 525 nm (FL1), respectively. […] Cells treated with 1 µM of camptothecin (Sigma-Aldrich, Spain) served as a positive control for apoptosis and were used to establish cytometer settings and channel compensations. The experiments were carried out in triplicate for each condition. For each sample, 10,000 events were collected.

Data set [10] relates to MRC5 non-malignant lung fibroblasts. Kind of data set: CCK-8 assay on non-malignant cells for selective toxicity. It is filed as cell-based. Conditions: Homo sapiens; MRC5 non-malignant lung fibroblasts, CCK-8; read-out: IC50 MRC5.
Description: as §2, §3, §4, §5
The nature of data set [11]: Solubility in solvents compatible with in vitro assays. It counts as physicochemical. Conditions: in words.

Turning to `Cc1ccc(NC2=CC(c3ccccc3)N(c3ccc(C)cc3)C2=O)cc1` (stereo not drawn) [4b], the IC50 in data set [1] was 27.9 µM; in data set [2] (Homo sapiens, HEK293, Figure 2), more than 50 µM; in data set [4] (Homo sapiens, MCF7, Figure 2) it was more than 50 µM; in data set [5] it was 9.62 ± 1.18 µM; in [6], 30.2 µM; in [7], 2.34 ± 0.28 µM. Further, the IC50 in data set [8] is 22.1 ± 2.98 µM; in data set [10], more than 50 µM. Also, in [2], the “Growth inhibition activity against HEK293, in words” value is given as “no grown inhibition activity”. Besides, the “Cell morphology and growth” value in the data set on A549 cells [3] (1 µM, 0-48 h) was “healthy, uniform morphology”; in the data set with A549 cells [3] (5 µM, especially after 6 h of exposure), “alterations of the cellular morphology”. Further, in the data set on A549 cells [3] (higher concentrations (10 and 15 µM, 24 h)), the Cell morphology entry was “high cytotoxicity”. Also, the “Growth inhibition activity against MCF7, in words” value in data set [4] is recorded as “no grown inhibition activity”. Moreover, in the data set with A549 cells [9] (12-48 h), the “Percentage of dead cells exclusively FL-1 positive” value was not above 2%. The “Total percentage of FL-3 positive cells (early and late apoptotic cells)” value in the data set with A549 cells [9] (12-48 h, increased over time) is given as “over 60%”. The entries for the “Percentage of late-apoptotic and necrotic cells” value in the data set on A549 cells [9] (12 h post-exposure), in the data set on A549 cells [9] (24 h post-exposure) and in the data set with A549 cells [9] (48 h post-exposure) were 33.03 ± 1.43%, 37.60 ± 3.37% and 36.90 ± 0.70%, respectively. Besides, the “Percentage of early-apoptotic cells” value with A549 cells [9] (12 h post-exposure) is listed as 31.17 ± 2.04%; with A549 cells [9] (24 h post-exposure), 34.97 ± 3.62%; with A549 cells [9] (48 h post-exposure), 40.13 ± 0.81%.
The compound `Cc1ccc(NC2=CC(CC(C)C)N(c3ccc(C)cc3)C2=O)cc1` (stereo not drawn) [4p] returned a melting point of 178 to 179 °C. Besides, in data set [5], the IC50 is more than 50 µM. The IC50 in data set [7] came to 20.1 ± 2 µM. Further, in data set [10], the IC50 was found to be 24.1 ± 1.64 µM.
In the case of `Cc1ccc(NC2=C(P(=O)(c3ccccc3)c3ccccc3)CN(c3ccc(C)cc3)C2=O)cc1` [5e], in data set [11], the “Solubility in the solvents compatible with the tests for in vitro assays” value is on record as “low solubility”.
`O=C1C(Nc2cccc(C(F)(F)F)c2)=CCN1c1cccc(C(F)(F)F)c1` [11a] came in with a melting point of 160 to 162 °C. Besides, in data set [5], the IC50 was more than 50 µM. Moreover, in data set [7], the IC50 is 22.9 ± 1.13 µM. The IC50 in [10] is more than 50 µM.
For the compound `CCOC(=O)C1(C)C=C(Nc2ccc(C)cc2)C(=O)N1c1ccc(C)cc1` (stereo not drawn) [compound 16, Ethyl 2-methyl-5-oxo-1-(p-tolyl)-4-(p-tolylamino)-2,5-dihydro-1H-pyrrole-2-carboxylate], the melting point was 188 to 190 °C (dec.). Besides, the IC50 in data set [5] is more than 50 µM. Also, in [7], the 50% inhibitory concentration (IC50) is 14 ± 1.05 µM. The compound also had an IC50 in data set [8] of more than 50 µM. The IC50 in data set [10] is more than 50 µM.
With `Cc1ccc(/N=C2/C=C(c3ccccc3)N(c3ccc(C)cc3)C2=O)cc1` [compound 21, (Z)-5-phenyl-1-(p-tolyl)-3-(p-tolylimino)-1,3-dihydro-2H-pyrrol-2-one], the melting point was 207 °C (dec.). In addition, in data set [5], the IC50 is 16.7 ± 1.1 µM. Besides, in [7], the IC50 came out at 0.6 ± 0.08 µM. The IC50 in [10] came out at 6.12 ± 0.76 µM.
